Laboratory results: a melting point compilation (Tetko et al.; mined from patent text by program, amines drawn as free bases though some values may be those of a salt)

melting point	SMILES
110 to 113 °C	COc1cc2ncnc(Nc3cccc(N=[N+]=[N-])c3)c2cc1OC
81.5 to 82 °C	Cc1c(C)c(C)c2c(c1C)CCCC2
177 to 179 °C	CC(=O)Nc1ccc(OCC2CCN(CC(O)COc3cccc4c3CCN4C=O)CC2)cc1 (stereo unspecified)
89 °C	CCCCNc1ccc2cc(Cl)cnc2c1C#N
88 to 91 °C	O=C1NC(=O)C(Cc2ccc(OCc3nc4cccnc4n3-c3ccccc3)cc2)S1 (stereo unspecified)
149 to 150 °C	O=C(NCN1CCCCCCCC1=O)NCN1CCCC1=O
134 °C	O=S(=O)(NCC1CC1)c1cccc(-c2cc(-c3nc(-c4ccc(C(F)(F)F)cc4)cc(C(F)(F)F)n3)ccn2)c1
80 to 82 °C	CCN(C(=O)N1CCN(c2cc(C)cc(C)c2)CC1)c1cc(C)c(C)cc1OC
116 to 118 °C	O=C1CCCC(=O)C1=CC=Cc1ccccc1
135 to 136 °C	CCN(c1ccc([N+](=O)[O-])cc1C#N)S(=O)(=O)c1ccc(C)cc1
200 to 202 °C	CN(C)c1ccc(-c2cccc(-c3ccnc4c(C(=O)c5cccs5)cnn34)c2)cc1
163 to 165 °C	N#CN1CCC2(CC1)CN(c1ccccc1[N+](=O)[O-])c1cc(Cl)ccc12
145 to 147 °C	CSc1ccc(-c2cc(C(F)(F)F)nn2-c2ccc(C#N)cc2)cc1
162 to 164 °C	Cc1c(NC(=O)c2ccc(OCC3CC3)cc2)ccc2cc(C(C)N3CCCC3)cnc12 (stereo unspecified)
126 to 127 °C	Cn1cnc2ccc(-c3nnc(SCc4cccc(C(F)(F)F)c4)o3)cc21
167 to 169 °C	C#CCCCc1c2c3c(nc(N)c2nn1CCC)CCCC3
103 to 104 °C	CCC(=O)COc1cc(N)c(Cl)cc1C(=O)NCCN(CC)CC
111 °C	COc1cc(CCCN(C)Cc2ccc(OC)c(OC)c2)ccc1NC(=O)c1cccc2c(=O)c3cccc(C)c3[nH]c12
220 to 222 °C	CC(C)(C)OC(=O)N1CCC(C(=O)N2CCC(c3[nH]nc4c3C(=O)c3c(NC(=O)NN5CCOCC5)cccc3-4)CC2)CC1
89 to 91 °C	CCCC(Oc1cncc(Cl)c1)C(=O)O (stereo unspecified)
75 to 79 °C	CN(C)CCOc1cc2c(Nc3ccc(Cl)cc3Cl)c(C#N)cnc2cn1
117 °C	CCOC(=O)CC(NC(=O)c1cccc(NC(=O)c2csc(NC(=N)N)n2)c1)c1ccccc1 (racemic)
118 to 120 °C	CC(CCCC(C)(C)O)C1CCC2C3=CC=C4CC(O)C(OCCCO)C(O)C4(C)C3CCC21C (stereo unspecified)
235 °C	O=C1CN2C(=O)C(c3ccccc3)c3cccc(c32)N1 (stereo unspecified)
133 to 135 °C	COc1ccc2c(c1)OCCC(C(=O)N1CCN(C(=O)c3cc(OC)c(OC)c(OC)c3)CC1)=C2

melting point	SMILES
265 to 267 °C	Cn1ccnc1Sc1ccc(Nc2c(C#N)cnc3cc(N4CCC(N5CCCC5)CC4)c(N)cc23)cc1Cl
108 °C	CCOC(=O)CN1CCN(c2ccc(C#N)cc2)CC1=O
117 to 118 °C	CC1(C)CC(c2ccc(F)cc2)=C(c2ccc(S(N)(=O)=O)cc2)C1
132 to 136 °C	CN1CCCN(c2ccc(/C=C/c3cc(/C=C/c4ccc5cc[nH]c5c4)[nH]n3)c(Br)c2)CC1
152 to 154 °C	COc1cc(Nc2c(C#N)cnc3cc(/C=C/CCN4CCN(C)CC4)ccc23)c(Cl)cc1Cl
53 to 54 °C	O=C(OCc1cc(OCCCBr)c(OCCCBr)c(OCCCBr)c1)c1ccccc1
113 °C	CCOc1cccc2oc(C(N)=O)cc12
104 to 105 °C	CCn1nnnc1Cc1ccc([N+](=O)[O-])cc1
227 °C	CNc1ccc(/C=C/C(=O)O)cn1
134 °C	CC1(C)CCOC1=C(Sc1ccc(Cl)cc1)n1ccnc1
79.7 °C	COc1ccc(S(=O)(=O)N(C(=O)C(F)(F)F)c2ccc(Cl)cc2Cc2c(F)cccc2F)cc1OC
134 to 136 °C	O=P(O)(CO)c1ccccc1
123 to 138 °C	Cc1nc(Cl)c(C(=O)O)cc1Cl
65 to 68 °C	CCCCOc1cc(C=CC(=O)N2CCN(c3ccc(NC(=N)c4cccs4)cc3)CC2)cc(OCCCC)c1O
146 to 147 °C	COc1ccc(Cn2c(=O)c3cc(Cl)ccc3n(CCCCBr)c2=O)cc1
280 to 286 °C	COC(=O)c1nc(C)c2[nH]c3ccccc3c2c1I
127 to 129 °C	OCn1c2ccccc2c2ccccc21
89 to 90 °C	O=C(CCCCCl)c1cc2c3c(c1)CC(=O)N3CCC2
160 to 162 °C	Fc1ccc([C@H]2CC[C@H](N3CCN(Cc4ccc5ccccc5n4)CC3)CC2)cc1
265 to 267 °C	O=C(O)Cn1cc(Cc2nc3cc(C(F)(F)F)ccc3s2)c2ccc(Br)cc21
204 to 205 °C	O=C(c1ccc(O)cc1)c1sc2ccccc2c1-c1ccccc1
139 to 141 °C	COC(=O)CCc1ccc(-n2cnn(CCC3CCN(C(=O)OC(C)(C)C)CC3)c2=O)cc1
135 to 136 °C	CN1C(=O)C2(COc3cc4c(cc32)OCCO4)c2c(C(=O)NC3CCCC3)cccc21 (stereo unspecified)
184 °C	O=C1OCCN1c1ccc(NCCO)c([N+](=O)[O-])c1
116 to 118 °C	O=C(O)C1(c2cccs2)CC1

melting point	SMILES
148 to 152 °C	COc1ccc(C(=O)c2cccc3[nH]ccc23)cc1
75 to 77 °C	COc1ccc(-c2cc(C(=O)C(C)CN3CCCC3)on2)cc1 (stereo unspecified)
116 °C	COC(=O)c1ccc(F)cc1NS(C)(=O)=O
115 °C	COc1cccc2c1CC(N(CCCc1c[nH]c3ccc(F)cc13)C1CC1)CO2 (stereo unspecified)
157 to 159 °C	COc1ccc(-c2nc(C(F)(F)F)c[nH]2)cc1OC1CCCC1
73 to 74 °C	COc1nncc(-c2ccccc2)n1
231 to 232 °C	COc1nc2c(C)cc(C)cc2c(-c2ccccc2Cl)c1N(C(N)=O)c1ccc(F)cc1F
204 °C	Cc1ccc(Oc2ccc(NC(=O)Nc3cc(C(C)(C)C)n[nH]3)cc2)cc1
220 to 223 °C	CC(=O)Nc1ccc(-c2ccc3nnn(Cc4ccc5ncccc5c4)c3n2)cc1
212 to 214 °C	COc1ccc2cc(C(N)=O)ccc2n1
68 to 71 °C	CCON=C(C(N)=O)C(=O)OC
124 to 127 °C	Cc1cc(C)nc(NCC(O)CO)n1 (stereo unspecified)
142 to 143 °C	CS(=O)(=O)c1ccc(C2=C(c3ccccc3)C(=O)OC23CCCC3)cc1
154 to 155 °C	Clc1nc(C(Cl)(Cl)Cl)nc2ccc(I)cc12
155 °C	O=C1CCc2cc(Cl)c(Cl)cc21
175 to 176 °C	CN(C)CC(=O)N1c2cc(Cl)ccc2N(C)S(=O)(=O)c2ccccc21
194 to 195 °C	O=C(NNc1ccc([N+](=O)[O-])cc1)c1ccccc1
> 260 °C	CC1Cn2c(nc3ccccc32)NC1=O (stereo unspecified)
138 to 140 °C	CCOC(=O)c1cn(-c2nccs2)c2nc(N3CCC(NC(=O)[C@H](C)NC(=O)OC(C)(C)C)C3)ccc2c1=O (stereo partly specified)
192 to 196 °C	CCNc1cc(OC)ccc1S(=O)(=O)N1C(=O)C(N)(c2ccccc2Cl)c2cc(Cl)ccc21 (stereo unspecified)
60 to 62 °C	CC(C)c1nc(CN(C)C(=O)NC(C(=O)NC(Cc2ccccc2)CC(O)C(Cc2ccccc2)NC(=O)OCc2ccno2)C(C)C)cs1 (stereo unspecified)
137 to 138 °C	O=c1cc(C(F)(F)F)[nH]c(=O)n1-c1ccc(F)c(F)c1F
168 °C	COc1cccc(OC)c1S(=O)(=O)OCC(=NNc1ccccc1)c1ccccc1
269 to 270 °C	COc1ccc(-c2cc(=O)c3cccnc3o2)cc1
147 to 148 °C	CCCCCCCOc1ccc(-c2ccc(N=Nc3ccc([N+](=O)[O-])cc3)cc2)cc1

melting point	SMILES
236 to 237 °C	CCn1c(=O)c2c(nc(C=Cc3cc(OC)ccc3S(N)(=O)=O)n2C)n(CC)c1=O
134 to 136 °C	CC(C)(C)OC(=O)NCCSCC1(C)NC(=O)NC1=O (stereo unspecified)
144 °C	Nc1cc(N)c(SCCO)cc1SCCO
147 to 149 °C	COC(=O)CCCC#Cc1cc(Cl)ccc1NS(=O)(=O)c1sc(NC(C)=O)nc1C
245 to 248 °C	COc1cc2nc(N3CCN(C(=O)C=Cc4ccccc4)CC3)nc(N)c2cc1OC
121 to 123 °C	O=C1N(Cc2ccc(Cl)cc2)c2ccccc2C1(O)CC(F)(F)c1cccs1 (stereo unspecified)
186 to 188 °C	O=C1CC2Cc3ccccc3N2CCN1 (stereo unspecified)
220 °C	O=C1CCc2cc(Br)c(NC(=O)C(F)(F)F)cc21
168 to 169 °C	CCCc1nc2cc(C(=O)c3ccccc3)ccc2n1Cc1ccc(Cl)c(Cl)c1
75 °C	CC(=O)OC1CSC(Oc2ccccc2-c2ccno2)C(OC(C)=O)C1OC(C)=O (stereo unspecified)
84 to 86 °C	CCCCCCCCCCCCCCCCCCNC(=O)O[C@@H]1CCCO[C@H]1COCc1ccccc1 (relative stereo)
165 to 167 °C	CCOC(=O)c1cnc2n(c1=O)CC(C)CC2=NNc1ccccc1 (stereo unspecified)
> 350 °C	Nc1nc2nc(-c3ccccc3)[nH]c2c2ncnn12
220 °C	O=[N+]([O-])c1ccc2c(c1)C[C@H]1CSC(=S)N1C2
135 to 137 °C	COc1ccc(N2Cc3ccccc3P2(=O)C(C)C)cc1 (stereo unspecified)
143 to 145 °C	CC(C)(C)OC(=O)NCCN1C(=O)c2ccccc2C1=O
66 to 69 °C	COC(=O)c1cc(C(C)=O)c(C(F)(F)F)cc1NC(C)=O
219 to 220 °C	CCCCc1ncc(/C=C/C=C/C(=O)O)n1Cc1ccccc1Cl
264 °C	O=C1c2cccc(O)c2C(=O)c2sc(-c3ccccc3)nc21
201 to 204 °C	CS(=O)(=O)Nc1ccc([N+](=O)[O-])cc1N
170 to 172 °C	CCCc1nn(CC)c2c(=O)[nH]c(-c3cc(S(=O)(=O)Cl)ccc3OCC)nc12
235 to 236 °C	N#Cc1cc(C(=O)O)c2c(c1)C(C(=O)O)CCN2 (stereo unspecified)

SMILES	melting point
c1ccc(N2CCN(Cc3c[nH]c4ncccc34)CC2)cc1	207 to 209 °C
COC(=O)c1nc(Cc2ccccc2)n2c1CN=C(c1ccccc1Cl)c1cc(Cl)ccc1-2	155 to 158 °C
N#Cc1cccc(CN2CCN(c3ccc(N)cc3)CC2)c1	79 to 81 °C
CN(C)C(=N[N+](=O)[O-])NCc1ccc(Cl)nc1	160 to 162 °C
